Test results taken from patent US5358936A, “Anionic furanose derivatives, methods of making and using the same” (Gordon; Paul, priority 1991, dated 1994).
Values joined by “and” are separate entries in the source; they are usually repeats but may differ in a detail not shown here. Equal values may be shown once. “Also recorded” adds a separate entry of the source. Where a name gives a salt, the structure may show the parent alone.

How the values were obtained:
[1] = tested on: myeloperoxidase (MPO); neutrophil infiltration; assay: Myeloperoxidase (MPO) accumulation in ZAS-swollen footpads (Example 23); format: in vivo, rat; conditions: ZAS alone 94.42 ± 12.81, normal 11.67 ± 1.87, P < 0.01
Method: The relationship of neutrophil infiltration to ZAS-induced swelling, and its drug-inhibition, was evaluated in another study. In this study, all procedures employing ZAS and Compound III were carried out as above, except that, Compound III was administered 45 minutes before ZAS, and standardized samples of the swollen footpads were removed and subjected to analysis for myeloperoxidase activity (MPO), according to the method of Lundberg et al., Inflammation, 7:247, (1983). MPO is a neutrophil-specificenzyme, and its assay is the most widely used method of identifying the degree of neutrophil participation in organ pathology.

[2] = Chronic toxicity in C57 Black mice by drinking water (Example 29 B); format: in vivo; conditions: 28 days, average daily dose 175 mg/kg
Method: However, eight mice were treated with Compound III by drinking water, for a period of 28 days. During this time, the average daily dose consumed was 175 mg/kg.

mouse paw = assay: Mouse paw edema provoked by clostridial collagenase (Example 32); format: in vivo; conditions: for maximal drug inhibition of edema: lower enzyme level (0.05 μg/ml), 100 mg/kg divided IV and IP
Method: Further, mouse paw edema was provoked by two levels of clostridial collagenase enzyme, in the supramaximal range (0.05 μg/ml and 0.15 μg/ml), and treated with one level of drug (Compound III; 100 mg/kg divided equally and administered IV and IP at zero time). The maximal drug inhibition observed was 81 percent at one hour and 87 percent at two hours, for the lower level of enzyme.

rat stomachs = assay: Gastric pathology following inflammatory stress and indomethacin, fed rats (Example 20); format: in vivo, male Sprague Dawley rats; parameters: scale not given here; conditions: stress + indomethacin 30 mg/kg oral; Compound III 50 mg/kg subcutaneously where given; 24 hours
Method: Stress was induced by the following procedure. On day one, under ether anesthesia, 18 male Sprague Dawley rats were injected with a suspension of Zymosan A (1 mg/ml in normal saline; Sigma Chemical Co.) in each hind paw. Swelling developed and persisted. This treatment generated activated blood complement locally (including the C5a moiety), which then spread by the bloodstream throughout the animal.
Twenty-four hours later all rat paws were reinjected, this time with 0.1 ml of proinflammatory zymosan-activated rat serum containing additional amounts of inflammatory complement fragment C5a (as in Example 23, hereinafter). Five hours later 30 mg/kg indomethacin in an aqueous suspension was given to nine such rats by oral garage. These rats also received a subcutaneous injection of 0.1 ml normal saline. Nine other such rats were given indomethacin as above, and Compound III (50 mg/kg in normal saline subcutaneously). Four additional rats, not stressed (normal) were given water by garage as a placebo and saline subcutaneously. All rats were fed ad libitum on standard diet.
Twenty-four hours later all animals were sacrificed by ether euthanasia. Their stomachs were washed with saline and evaluated for ulcer-related pathology using an illuminated magnifying glass. This assay is similar to that reported by Kinney et al., J. Med. Chem., 33:327 (1990).

platelet aggregation = assay: Mouse tail bleeding time (Example 31 B); format: in vivo
Method: A study of mouse tail bleeding time, which is an in vivo model of platelet aggregation and thrombosis was also conducted. In this widely employed model, bleeding was induced by a standardized transection of the tail tip and subsequent bleeding time was determined after vertical immersion of the tails in isotonic saline at 37° C. for thirty seconds.
Two compounds of the invention, Compound III and Compound VIII, were assessed as compared with aspirin, in another study of mouse tail bleeding time. In this study, the mice were housed in a standard animal room rather than in a noisy small animal isolator. Also, all three drugs were administered by an intraperitoneal route, rather than a subcutaneous route for Compound III and an intraperitoneal route for aspirin.

gastric mucosal ulcers = assay: Healing of established gastric ulcers induced by acetic acid (Example 34); format: in vivo, rat; conditions: rat, in vivo; tripotassium salt
Excerpt: To evaluate drug effects on peptic ulcer healing, gastric mucosal ulcers were produced in rats, after a two day fast, by a modification of the method of Konturek et al., Am. J. Med., Vol. 86, 6A, 32 (1989). Briefly, to produce a mucosal ulcer, Konturek et al. applied 100 percent acetic acid for twenty seconds to the stomach serosa through a small cylindrical mold, 4.2 mm in diameter. The aim here was to make ulceration more severe than was achieved by the Konturek group so that spontaneous healing would not be as pronounced as they found in the controls, over an experimental period of seven days.
All drugs studied were suspended in 0.25 percent (by weight) aqueous methylcellulose solution as the vehicle or diluent, which also served as the placebo given to the controls. Treatments were given once daily by oral gavage, in one milliliter of vehicle. The treatment groups were: Control; Sucralfate at 200 mg/kg; and Compound III:Al at 200 mg/kg.
At the end of the treatment period, stomachs were removed, ulcer diameters were measured, and determination was made of the presence or absence of perforation.
A second study was carried out in which ulcer evolution was permitted to take place over five additional days, in the absence and presence of treatment with Sucralfate.
A third study was begun one day following the start of study 2, in which ulcer evolution was allowed to take place over five additional days, in the absence and presence of treatment with Compound III:Al.
In another study, after ulcer induction as above, a different dosage protocol was employed at 24 hours to evaluate the interaction of Compound III and orally administered sucralfate on ulcer healing. […] Here, daily drug doses of the following were used: (a) sucralfate at 200 mg/kg, alone and (b) in combination with 80 mg/kg Compound III given by mouth at -45 minutes, and, in a third group, (c) in combination with 10 mg/kg Compound III given IV also at -45 minutes. In this interaction study, drug treatment was continued for three and not five days, as was the case for the above studies, followed by passage of two additional non-treatment days before sacrifice of animals for evaluation of stomach ulcer area and perforation.
Data from all ulcer-healing studies employing a drug dosage of 200 mg/kg and the same ulcerogenesis protocol were pooled as to the frequency of gastric perforation observed on day five, not shown separately, with the day six perforation data shown above.

[3] = tested on: bacterial lipopolysaccharide toxicity; assay: Early shock symptoms (diarrhea, malaise) after bacterial endotoxin in older rabbits (Example 28 B); format: in vivo, rabbit; conditions: 10 mg/kg IV; by 48 hours; all eight controls affected; P<0.01
Method: B. Employing the same batch of endotoxin, the same induction methodology was applied to an older, seven month old group of rabbits. […] In this study the treatment group received 10 mg/kg of Compound III, given IV, as above.

mouse blood coagulation = assay: Blood coagulation, in vitro clotting time (Example 31 A); conditions: 10 μg/ml in normal saline
Method: To assess the effect on coagulation, if any, of a compound of the invention, a comparative evaluation was made using mouse blood.
One ml of freshly drawn mouse blood was added to each tube, and the tube contents were mixed. The clotting time was then noted for each tube, and the results are as shown below:

Excerpt for physchem: Note that the term "apparent pK" in this context is meant to encompass the maximization of buffering that come both from solid-state dissolution and its titration as solute.

Structure (SMILES): CC1(C)O[C@H]2O[C@H]([C@@H](COS(=O)(=O)O)OS(=O)(=O)O)[C@H](OS(=O)(=O)O)[C@H]2O1 [Compound III, 1,2-O-(2-Propylidene)-3,5,6-tri-O-sulfo-α-D-glucofuranose, tripotassium salt]
- MPO ([1]; 17 mg/kg, n = 6): 32.17 ± 2.83 Rel. Units
- MPO ([1]; 50 mg/kg, n = 12): 41.67 ± 8.93 Rel. Units
- body weight and appearance at termination versus controls [2]: weighed as much as the controls, and looked sleeker
- maximal drug inhibition of edema (mouse paw; one hour): 81%
- drug inhibition at higher enzyme level, in words (mouse paw; two hours, 0.15 μg/ml enzyme, 100 mg/kg): not significant
- maximal drug inhibition of edema (mouse paw; two hours): 87%
- pKa (physchem): < 0.5
- Mean Pathology score (rat stomachs): 0.00
- Pathology score, individual rat (rat stomachs): 0.0
- effect on mouse tail bleeding time, in words (platelet aggregation; 50 mg/kg and 150 mg/kg subcutaneously, P<0.05): more than doubled bleeding time
- % Increase in bleeding time (platelet aggregation; 100 mg/kg intraperitoneal): 276%
- Mouse Tail Bleeding Time (platelet aggregation; 100 mg/kg intraperitoneal, control 37.0 ± 5.25): 139.0 ± 22.51 s
- potency relative to aspirin in prolonging mouse tail bleeding time / suppressing platelet aggregation (platelet aggregation; first study: aspirin 75 mg/kg IP, Compound III s.c. or oral, second study: all IP 100 mg/kg, tripotassium salt): equipotent with aspirin (75 mg/kg IP); also recorded: about equipotent with aspirin; also recorded: more effective than aspirin; also recorded: more potent than aspirin in the suppression of platelet aggregation
- effect on established ulcers, in words (gastric mucosal ulcers): used alone did not enhance the healing process; also recorded: able to prevent the perforation of established ulcers
- rabbits exhibiting symptoms of early shock (diarrhea, malaise) [3]: only one of eight
- Clotting time, individual mouse (mouse blood coagulation; control 2.0-6.0, tripotassium salt): 2.0 min and 1.0 min and 4.0 min
- Average clotting time (mouse blood coagulation; control 4.33 ± 1.20, P<0.001): 2.0 ± 0.71 min
